# Source: patent US20050256056A1, “Peptide inhibitors of HIV” (priority 2003, published 2005)
# Read-outs that look alike come from different tables or passages of the source. Non-standard residues stand in square brackets, D forms with d. Residues, ends and D or L forms follow the SMILES beside them.
# Tests used:
# ogp140 = biological target: T1, ogp140 (Human immunodeficiency virus type 1 group M subtype B, UniProt P19550); format: binding, HIV-1 SF162 strain; details: Table 2 peptides re-synthesized on beads
# T1 construct: ogp140, which contains gp120 and the ectodomain of the gp41 subunit in a trimeric form; purchased Chiron Corporation (gift from Dr. Indresh Srivastava, not a purchase)
# T1 sequence (P19550 32-675): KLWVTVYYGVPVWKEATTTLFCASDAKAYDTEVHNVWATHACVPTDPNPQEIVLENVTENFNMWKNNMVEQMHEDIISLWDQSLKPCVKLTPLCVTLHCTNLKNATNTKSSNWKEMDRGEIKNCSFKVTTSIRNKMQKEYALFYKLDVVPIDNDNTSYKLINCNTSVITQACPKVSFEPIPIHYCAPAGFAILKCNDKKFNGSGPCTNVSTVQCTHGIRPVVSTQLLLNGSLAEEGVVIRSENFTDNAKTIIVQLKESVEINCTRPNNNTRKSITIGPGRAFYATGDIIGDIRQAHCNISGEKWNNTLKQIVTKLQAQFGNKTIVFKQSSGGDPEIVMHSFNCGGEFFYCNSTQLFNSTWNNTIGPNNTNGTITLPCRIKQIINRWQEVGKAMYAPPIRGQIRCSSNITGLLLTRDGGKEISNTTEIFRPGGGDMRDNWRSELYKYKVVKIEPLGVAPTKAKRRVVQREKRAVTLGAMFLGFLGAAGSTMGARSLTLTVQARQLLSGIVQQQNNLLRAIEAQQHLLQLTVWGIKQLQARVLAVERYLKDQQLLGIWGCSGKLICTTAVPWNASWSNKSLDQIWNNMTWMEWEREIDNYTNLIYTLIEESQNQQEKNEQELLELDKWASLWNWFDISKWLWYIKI
# Description: The optimal concentrations of glycoproteins for our screening assays were determined to be 0.25-1.25 μg/ml for ogp140 and 1-5 μg/ml for gp120. In order to visualize beads with bound ogp140 or gp120, these proteins were biotinylated so that an enzyme-linked colorimetric assay could be used to identify positive beads. Biotinylation was performed with Sulpho-NHS-biotin at a 5:1 molar ratio of biotin to protein. Reactions were carried out for both 3 minutes and 10 minutes to obtain different levels of biotinylation and were stopped with 2 M Tris-HCl, pH 7.4. The proteins were dialyzed for 4-5 hr to remove excess biotin.
# The peptides of Table 2 were re-synthesized on beads.
# These secondary libraries were screened with ogp140 under higher stringency (lower protein concentrations of both ogp140 and streptavidin-alkaline phosphatase (ST-AP)). The concentrations of ogp140 used in this screen were 0.06 mg/mL and 0.3 mg/mL. These concentrations are 4-fold lower than those used in the original screen (0.25 mg/mL and 1.25 mg/mL). The amount of ST-AP was lowered from 1:15,000 in the original screen to 1:25,000 in this screen. Approximately 75,000 beads from each library were screened.
# From the 34 positive beads of the 8-mer library, the 12 darkest beads were selected for sequence analyses and the results are in Table 3.
# HIV-1 NL4-3 = test: focal infectivity assay, inhibition of HIV-1 NL4-3 in HeLa H1-JC.37 cells; format: cell-based
# Description: The term “EC50” refers to the concentration of peptide that inhibits 50% viral activity, including infective activity, as measured in an in vitro assay, including a focal infectivity assay (described in Pincus, et al. Biotechniques 10:336 (1991)).
# Peptides and peptide analogs that bind to an HIV target protein of interest are then screened for their effectiveness in inhibiting HIV activity in vitro. One assay for evaluating HIV inhibiting activity in vitro is a focal infectivity assay, described by Pincus, et al. Biotechniques 10:336 (1991). Preferred peptides and peptide analogs will inhibit HIV activity in vitro at a concentration of about 50 μM or less, more preferably at about 40 μM, 30 μM, 25 μM or 20 μM or less, and more preferably at about 15 μM, 10 μM or 5 μM or less.
# After re-synthesis of 16 of these as soluble peptides, 13 were tested for ability to inhibit the NL4-3 clone of HIV-1 (the other 3 were insoluble). For these studies a focal infectivity assay was carried out using HeLa H1-JC.37 cells. H1-JC.37 cells are HeLa cells that naturally express the CXCR4 receptor and that have been engineered to express CD4 and CCR5 receptors (Platt, et al. J. Virol. 72:2855 (1998)). Dose-response curves were performed in triplicate experiments with 6 determinations per drug concentration in each experiment. None of these peptides inhibited growth of HeLa H1-JC.37 cells at the concentrations tested (up to 100 μM). […] The purified peak fraction was re-tested for anti-HIV activity, and the EC50 was determined to be 8 μM. The identity of the biologically active peptide has been confirmed with mass spectrometry.
EC50 (HIV-1 NL4-3; NL4-3),SMILES,staining intensity of peptide beads in binding assays with ogp140 (ogp140),"EC50 (HIV-1 NL4-3; HPLC-purified peak fraction re-tested, read-out: EC50 of purified peak fraction, anti-HIV activity)"
> 100 µM,CSCC[C@@H](NC(=O)[C@H](N)Cc1c[nH]cn1)C(=O)N[C@H](CC(N)=O)C(=O)N1CCC[C@H]1C(=O)N[C@H](Cc1ccccc1)C(=O)N[C@H](Cc1ccc(O)cc1)C(=O)N[C@H](Cc1ccc(O)cc1)C(=O)N[C@H](CCC(N)=O)C(=O)O [compound 13] (H-[dH][dM][dN]P[dF][dY][dY][dQ]-OH; N-terminus and C-terminus assumed),–,–
55 µM,CC(C)[C@@H](NC(=O)[C@@H](Cc1c[nH]cn1)NC(=O)[C@@H](CC(=O)O)NC(=O)[C@@H](Cc1ccccc1)NC(=O)[C@@H]1CCCN1C(=O)[C@@H](CCC(N)=O)NC(=O)[C@@H](Cc1ccc(O)cc1)NC(=O)[C@H](N)Cc1ccc(O)cc1)C(=O)O [compound 14] (H-[dY][dY][dQ]P[dF][dD][dH][dV]-OH; N-terminus and C-terminus assumed),–,–
> 100 µM,CC[C@@H](C)[C@@H](NC(=O)[C@@H](Cc1c[nH]c2ccccc12)NC(=O)[C@@H]1CCCN1C(=O)[C@@H](Cc1ccc(O)cc1)NC(=O)[C@@H](CO)NC(=O)[C@H]1CCCN1C(=O)[C@@H](C)N)C(=O)N[C@H](CCCNC(=N)N)C(=O)O [compound 1] (H-[dA][dP][dS][dY]P[dW][dI][dR]-OH; N-terminus and C-terminus assumed),–,–

SMILES,EC50 (HIV-1 NL4-3; NL4-3),staining intensity of peptide beads in binding assays with ogp140 (ogp140),"EC50 (HIV-1 NL4-3; HPLC-purified peak fraction re-tested, read-out: EC50 of purified peak fraction, anti-HIV activity)"
"CC[C@@H](C)[C@@H](NC(=O)[C@@H](Cc1c[nH]c2ccccc12)NC(=O)[C@@H]1CCCN1C(=O)[C@@H](Cc1ccc(O)cc1)NC(=O)[C@@H](CO)NC(=O)[C@H]1CCCN1C(=O)[C@H](N)CCSC)C(=O)N[C@H](CCCNC(=N)N)C(=O)O [compound 16, mpsyPwir] (H-[dM][dP][dS][dY]P[dW][dI][dR]-OH; N-terminus and C-terminus assumed)",17 µM,stain more intensively,8 µM
